# Assay results published in patent US10167262B2, “Herbicidal substituted 3-arylpyrazoles” (FMC CORPORATION, priority 2014, dated 2019).
# What was measured:
# Type in all cases: in vivo
# [1] = test system: chickweed (common chickweed, Stellaria media); assay: Test C postemergence greenhouse test, plant response rating 0-100
# Text: (§1) At the same time, plants selected from these crop and weed species and also winter barley (Hordeum vulgare), bermudagrass (Cynodon dactylon), downy bromegrass (Bromus tectorum), canarygrass (Phalaris minor), cocklebur (common cocklebur, Xanthium strumarium), woolly cupgrass (Eriochloa villosa), deadnettle (henbit deadnettle, Lamium amplexicaule), green foxtail (Setaria viridis), goosegrass (Eleusine indica), surinam grass (Brachiaria decumbens), windgrass (Apera spica-venti), chickweed (common chickweed, Stellaria media), kochia (Kochia scoparia), and wild oat (Avena fatua), were planted in pots containing Redi-Earth® planting medium (Scotts Company, 14111 Scottslawn Road, Marysville, Ohio 43041) comprising spaghnum peat moss, vermiculite, wetting agent and starter nutrients and treated with postemergence applications of test chemicals formulated in the same manner. Plants ranged in height from 2 to 18 cm (1- to 4-leaf stage) for postemergence treatments. Treated plants and controls were maintained in a greenhouse for 13 to 15 days, after which time all species were compared to controls and visually evaluated. Plant response ratings, summarized in Table C, are based on a scale of 0 to 100 where 0 is no effect and 100 is complete control. A dash (-) response means no test result.
# [2] = test system: wild oat (Avena fatua); assay: as above
# Text: as §1
# [3] = test system: kochia (Kochia scoparia); assay: as above
# Text: as §1
# [4] = test system: giant foxtail (Setaria faberii); assay: Test C pre-/postemergence greenhouse test, plant response rating 0-100; conditions: Postemergence
# Outline: (§2)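 Greenhouse test. Preemergence: seed in loam:sand, sprayed with formulated chemical (solvent + surfactant). Postemergence: 1–4 leaf plants, 2–18 cm, peat-based potting medium. Hold 13–15 d; score visually, 0 (none) to 100 (complete control); dash = not tested.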
# [5] = test system: Italian ryegrass (Lolium multiflorum); assay: as above; conditions: Postemergence
# Outline: as §2
# [6] = test system: pigweed (Amaranthus retroflexus); assay: as above; conditions: Postemergence
# Outline: as §2
# [7] = test system: johnsongrass (Sorghum halepense); assay: as above; conditions: Postemergence
# Outline: as §2
# [8] = test system: lambsquarters (Chenopodium album); assay: as above; conditions: Postemergence
# Outline: as §2
# [9] = test system: galium (catchweed bedstraw, Galium aparine); assay: as above; conditions: Postemergence
# Outline: as §2
# [10] = test system: corn (Zea mays); assay: as above; conditions: Postemergence
# Outline: as §2
# [11] = test system: yellow nutsedge (Cyperus esculentus); assay: as above; conditions: Postemergence
# Outline: as §2
# [12] = test system: winter wheat (Triticum aestivum); assay: as above; conditions: Postemergence
# Outline: as §2
# [13] = test system: soybean (Glycine max); assay: as above; conditions: Postemergence
# Outline: as §2
structure (smiles),measurement,setting,value
O=C(c1ccccc1)c1cn(S(=O)(=O)CCl)nc1-c1cc(Cl)cc(Cl)c1 [Compound 1],"Plant response rating (0 to 100), Chickweed",[1]; 31 g ai/ha,90
same,"Plant response rating (0 to 100), Chickweed",[1]; 62 g ai/ha,100
same,"Plant response rating (0 to 100), Chickweed",[1]; 125 g ai/ha,100
same,"Plant response rating, Chickweed","[1]; 250 g ai/ha, scale 0 to 100",100
same,"Plant response rating (0 to 100), Oat, Wild",[2]; 62 g ai/ha,0
same,"Plant response rating (0 to 100), Oat, Wild",[2]; 125 g ai/ha,0
same,"Plant response rating, Oat, Wild","[2]; 250 g ai/ha, scale 0 to 100",0
same,"Plant response rating (0 to 100), Kochia",[3]; 62 g ai/ha,80
same,"Plant response rating (0 to 100), Kochia",[3]; 125 g ai/ha,85
same,"Plant response rating, Kochia","[3]; 250 g ai/ha, scale 0 to 100",90
same,"Plant response rating (0 to 100), Foxtail, Giant",[4]; 31 g ai/ha,0
same,"Plant response rating (0 to 100), Foxtail, Giant",[4]; 62 g ai/ha,0
same,"Plant response rating (0 to 100), Foxtail, Giant",[4]; 125 g ai/ha,0
same,"Plant response rating, Foxtail, Giant","[4]; 250 g ai/ha, scale 0 to 100",0
same,"Plant response rating (0 to 100), Ryegrass, Italian",[5]; 62 g ai/ha,0
same,"Plant response rating (0 to 100), Ryegrass, Italian",[5]; 125 g ai/ha,0
same,"Plant response rating, Ryegrass, Italian","[5]; 250 g ai/ha, scale 0 to 100",0
same,"Plant response rating (0 to 100), Pigweed",[6]; 62 g ai/ha,98
same,"Plant response rating (0 to 100), Pigweed",[6]; 125 g ai/ha,100
same,"Plant response rating, Pigweed","[6]; 250 g ai/ha, scale 0 to 100",100
same,"Plant response rating (0 to 100), Johnsongrass",[7]; 62 g ai/ha,0
same,"Plant response rating (0 to 100), Johnsongrass",[7]; 125 g ai/ha,0
same,"Plant response rating, Johnsongrass","[7]; 250 g ai/ha, scale 0 to 100",0
same,"Plant response rating (0 to 100), Lambsquarters",[8]; 62 g ai/ha,70
same,"Plant response rating (0 to 100), Lambsquarters",[8]; 125 g ai/ha,85
same,"Plant response rating, Lambsquarters","[8]; 250 g ai/ha, scale 0 to 100",85
same,"Plant response rating (0 to 100), Galium",[9]; 31 g ai/ha,0
same,"Plant response rating (0 to 100), Galium",[9]; 62 g ai/ha,0
same,"Plant response rating (0 to 100), Galium",[9]; 125 g ai/ha,0
same,"Plant response rating, Galium","[9]; 250 g ai/ha, scale 0 to 100",20
same,"Plant response rating (0 to 100), Corn",[10]; 31 g ai/ha,0
same,"Plant response rating (0 to 100), Corn",[10]; 62 g ai/ha,0
same,"Plant response rating (0 to 100), Corn",[10]; 125 g ai/ha,0
same,"Plant response rating, Corn","[10]; 250 g ai/ha, scale 0 to 100",0
same,"Plant response rating (0 to 100), Nutsedge, Yellow",[11]; 62 g ai/ha,0
same,"Plant response rating (0 to 100), Nutsedge, Yellow",[11]; 125 g ai/ha,0
same,"Plant response rating, Nutsedge, Yellow","[11]; 250 g ai/ha, scale 0 to 100",10
same,"Plant response rating (0 to 100), Wheat",[12]; 62 g ai/ha,0
same,"Plant response rating (0 to 100), Wheat",[12]; 125 g ai/ha,0
same,"Plant response rating, Wheat","[12]; 250 g ai/ha, scale 0 to 100",0
same,"Plant response rating (0 to 100), Soybean",[13]; 62 g ai/ha,0
same,"Plant response rating (0 to 100), Soybean",[13]; 125 g ai/ha,0
same,"Plant response rating, Soybean","[13]; 250 g ai/ha, scale 0 to 100",0
